Legend:
[1] = target: T1, PIKfyve (Homo sapiens, UniProt Q9Y2I7); test: Assessment of lipid kinase inhibitory activity (competition with biotinyl acyl phosphate ATP derivative in Jurkat cell extract, LC-MS/MS); format: binding; details: test compound 30 nM or 300 nM, FIG. 1
T1 construct: the supernatant resulting from centrifugation at 100,000×g for 60 minutes was used as a cell extract; endogenous in cells; host or cells: Jurkat (human T-lymphocyte line), cell extract
Experimental: Lipid kinase inhibitory activity was assessed according to the method described in Biochemistry 2007, 46, 350-358. Jurkat cell derived from human lymphocyte was suspended in a lysis buffer (20 mM Hepes, 150 mM NaCl, 0.1% TritonX-100, 20 mM MnCl2) by sonication, and the supernatant resulting from centrifugation at 100,000×g for 60 minutes was used as a cell extract. To the cell extract (5 mg/mL), a test compound (30 nM or 300 nM) or a solvent alone was added and incubated for 5 minutes. Then, an ATP derivative labeled with biotinyl acyl phosphate (20 μM) was added and incubated for 5 minutes, and the resultant was further subjected to digestion with trypsin. […] The biotin-labeled peptide was analyzed by LC-MS/MS for sequence identification and measurement of the elution amount of the lipid-kinase-derived peptide so as to assess competitive inhibitory activity of the test compound for the binding of the ATP derivative to various lipid kinases. […]
Using this assessment system, the inhibitory activity of the test compound for other lipid kinases was assessed (other lipid kinases may be commercially available or may be produced according to a method described in a known document) and the results thereof are shown in FIG. 1.

[2] = system: mouse enterocolitis model; test: Inflammation suppressive action in mouse IL-10-/- cell transfer enterocolitis model; format: in vivo; details: FIG. 3
Experimental: A method for producing a mouse IL-10^−/− cell transfer enterocolitis model is described, for example, in Gastroenterology. 2009 February; 136(2):564-74.e2. Epub 2008 Oct. 7.
Measurement of an intestine weight as a drug efficacy indicator was carried out according to the following method. On the last day for autopsy, large intestine from the anus to immediately before the cecum was removed. The content of the intestine was washed with physiological saline, water was roughly removed and then the weight was measured.
Results from the assessment of the inflammation suppressive action of Compound 1 in mouse enterocolitis model using this assessment system are shown in FIG. 3.

[3] = system: IL-12 and IL-23 productions; details: productions strongly induced by INF-γ; cited from earlier work
[4] = system: IL-12b expression in mouse peritoneal macrophage; test: IL-12-production suppressive action by PIKfyve and Vac14 knockdown (siRNA, quantitative PCR); format: cell-based; details: siRNA 1 μM, mouse interferon-γ and SAC stimulation 3.5 hours, normalized to GAPDH; FIG. 4
Experimental: Assessment of the effects of knockdown of PIKfyve and Vac14 expressed in mouse peritoneal macrophage using siRNA method was carried out as described below. Mouse peritoneal macrophage was isolated according to the method described in Laboratory Test Example 2, and subsequently suspended in Nucleofection solution attached to Mouse macrophage nucleofection kit (Lonza) to give 3.3×10^6 cells/mL. siRNA was added to the cell suspension to a final concentration of 1 μM and subjected to Nucleofection according to the attached protocol. The following siRNAs were used. […]
A FBS-free RPMI1640 medium was used for culture at 37° C. in the presence of 5% CO2 for 2 hours and then the medium was replaced by 0.5 ml of Dulbecco's MEM medium containing RPMI 1640 medium supplemented with 3% FBS for culture at 37° C. in the presence of 5% CO2 for 4 hours. Subsequently, 3.3 ng/mL mouse interferon-γ and 0.0017% (v/v) SAC were added and cultured for 3.5 hours and then the expression level of cytokine mRNA in the cell was measured.
Extraction and purification of total RNA from the mouse peritoneal macrophage was carried out using RNeasy midi kit (Qiagen 75144) according to the attached protocol. […] The resultant removed of the remaining […] was used as cDNA for quantitative PCR. […]

T1 sequence (Q9Y2I7 whole entry): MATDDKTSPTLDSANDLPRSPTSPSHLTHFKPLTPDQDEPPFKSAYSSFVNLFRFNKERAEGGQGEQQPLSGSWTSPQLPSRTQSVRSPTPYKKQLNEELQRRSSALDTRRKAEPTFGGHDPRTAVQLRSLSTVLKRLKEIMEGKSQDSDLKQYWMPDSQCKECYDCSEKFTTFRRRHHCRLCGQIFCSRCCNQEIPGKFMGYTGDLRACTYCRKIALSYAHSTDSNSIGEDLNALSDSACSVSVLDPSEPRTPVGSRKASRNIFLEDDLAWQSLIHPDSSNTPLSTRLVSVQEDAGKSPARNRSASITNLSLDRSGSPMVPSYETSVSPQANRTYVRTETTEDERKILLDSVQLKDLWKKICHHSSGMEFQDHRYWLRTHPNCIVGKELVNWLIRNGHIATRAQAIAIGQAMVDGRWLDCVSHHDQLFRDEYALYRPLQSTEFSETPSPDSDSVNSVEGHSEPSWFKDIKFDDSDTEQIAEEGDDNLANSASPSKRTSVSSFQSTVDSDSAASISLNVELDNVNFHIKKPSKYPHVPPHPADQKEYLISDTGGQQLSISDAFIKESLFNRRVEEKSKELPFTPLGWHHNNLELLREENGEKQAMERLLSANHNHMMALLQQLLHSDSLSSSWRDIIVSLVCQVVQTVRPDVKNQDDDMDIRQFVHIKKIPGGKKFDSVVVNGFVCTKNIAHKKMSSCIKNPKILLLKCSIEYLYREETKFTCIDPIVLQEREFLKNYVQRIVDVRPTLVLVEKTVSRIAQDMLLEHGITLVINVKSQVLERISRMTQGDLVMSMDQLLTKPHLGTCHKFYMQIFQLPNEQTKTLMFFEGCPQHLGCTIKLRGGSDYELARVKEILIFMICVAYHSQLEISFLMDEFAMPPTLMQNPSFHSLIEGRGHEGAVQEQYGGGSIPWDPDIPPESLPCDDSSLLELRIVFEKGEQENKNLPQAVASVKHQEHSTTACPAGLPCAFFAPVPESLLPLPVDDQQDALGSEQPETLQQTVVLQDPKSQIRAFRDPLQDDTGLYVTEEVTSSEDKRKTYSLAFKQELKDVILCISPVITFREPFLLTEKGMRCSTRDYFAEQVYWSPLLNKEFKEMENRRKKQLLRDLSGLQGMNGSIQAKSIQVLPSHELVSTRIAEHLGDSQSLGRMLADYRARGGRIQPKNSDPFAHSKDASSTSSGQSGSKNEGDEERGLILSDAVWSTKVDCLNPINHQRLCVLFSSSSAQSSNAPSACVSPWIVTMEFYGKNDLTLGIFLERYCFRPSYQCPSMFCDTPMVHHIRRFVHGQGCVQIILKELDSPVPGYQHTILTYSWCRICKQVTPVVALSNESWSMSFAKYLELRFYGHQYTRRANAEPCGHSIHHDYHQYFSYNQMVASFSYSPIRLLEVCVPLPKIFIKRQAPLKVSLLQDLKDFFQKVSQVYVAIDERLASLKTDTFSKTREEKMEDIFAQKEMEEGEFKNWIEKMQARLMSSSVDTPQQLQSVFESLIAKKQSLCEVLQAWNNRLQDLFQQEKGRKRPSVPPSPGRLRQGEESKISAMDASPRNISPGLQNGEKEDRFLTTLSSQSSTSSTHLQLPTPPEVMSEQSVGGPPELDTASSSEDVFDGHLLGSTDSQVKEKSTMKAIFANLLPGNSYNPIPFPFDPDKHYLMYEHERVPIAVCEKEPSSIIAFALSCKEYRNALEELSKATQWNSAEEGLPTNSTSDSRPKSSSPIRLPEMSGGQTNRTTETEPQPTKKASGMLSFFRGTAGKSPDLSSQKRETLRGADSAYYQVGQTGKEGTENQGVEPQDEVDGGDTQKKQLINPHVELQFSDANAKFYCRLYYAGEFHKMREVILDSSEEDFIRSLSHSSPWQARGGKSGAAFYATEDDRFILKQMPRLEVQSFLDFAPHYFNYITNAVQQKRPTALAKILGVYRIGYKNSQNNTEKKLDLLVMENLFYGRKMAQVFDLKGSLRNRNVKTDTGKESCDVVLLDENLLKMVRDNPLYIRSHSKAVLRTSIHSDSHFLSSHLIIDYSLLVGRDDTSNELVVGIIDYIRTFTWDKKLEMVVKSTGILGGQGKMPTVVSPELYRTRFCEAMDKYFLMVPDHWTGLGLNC

## Cc1cccc(C=NNc2cc(N3CCOCC3)n3nc(-c4ccncc4)cc3n2)c1 [Compound 1, N-(3-METHYL-BENZYLIDENE)-N′-(7-MORPHOLINE-4-YL-2-PYRIDINE-4-YL-PYRAZOLO[1,5-A]PYRIMIDINE-5-YL)-HYDRAZINE]
[1]
  inhibitory activity against various lipid kinases (selectivity): inhibitory activity selective to PIKfyve
[2]; 3, 10, 30 mg/kg, increase by IL-10-/- cell transfer
  weight of the large intestine: suppressed dependent on the dosage
[2]; administration group of 30 mg/kg, once a day
  suppressive action on large intestine weight: Significant suppressive action

## C(=NNc1cc(N2CCOCC2)n2nc(-c3ccncc3)cc2n1)c1ccc2cc[nH]c2c1 [Compound 2, N-(1H-INDOLE-6-YLMETHYLENE)-N′-(7-MORPHOLINE-4-YL-2-PYRIDINE-4-YL-PYRAZOLO[1,5-A]PYRIMIDINE-5-YL)-HYDRAZINE]
[1]
  inhibitory activity against various lipid kinases (selectivity): inhibitory activity selective to PIKfyve

## O=C1CCC(N2C(=O)c3ccccc3C2=O)C(=O)N1 (stereo not drawn) [thalidomide]
[3]
  suppression of IL-12 and IL-23 productions: cannot sufficiently suppress

## Vac14 siRNA: Silencer Select Pre-designed siRNA (Sense SEQ ID NO: 11, Antisense SEQ ID NO:12, Ambion, s107929) as Vac14 siRNA (sense GAUUUACUCCAACAACCAATT; antisense UUGGUUGUUGGAGUAAAUCCT; chemistry not given here)
[4]
  IL-12b expression (fold-change over basal): significantly suppressed

From patent US20130017548A1, “SCREENING METHOD” (AJINOMOTO, INC., priority 2009, published 2013)
